Assay results as given in US20110280862A1, “GEP AND DRUG TRANSPORTER REGULATION, CANCER THERAPY AND PROGNOSIS” (THE UNIVERSITY OF HONG KONG, priority 2010, published 2011).
≈ marks a conversion by molar mass, not a printed value. Read-outs that look alike come from different tables or passages of the source.

Columns and labels:
Assay type in all cases: cell-based, Human
Hep3B cells [1] = experiment: MTT assay, drug IC50, parental cells
Protocol: (§1) Human liver cancer cell lines, Hep3B and HepG2, were purchased from American Type Culture Collection (Manassas, Va.). Culture method has been previously described, for example by Ho J C, et al. Hepatology 2008; 47: 1524-1532 and Cheung S T, et al. Clin Cancer Res 2004; 10: 7629-7636. Stable transfectants for GEP overexpression and suppression have also been described. For chemoresistant populations, the Hep3B cells were plated out and selected under various chemotherapeutic agents of various concentrations at 10-fold dilution for 30 days. The highest dose that still had viable cells over the extended selection period was used and the cells expanded for further selection. The one-step selected cells were then plated out again and selected under escalating doses of the respective drug in a 2-fold manner for another 30 days. The two-step selection process could select a population of cells more resistant to chemotherapeutic agents. The cells selected for resistance to doxorubicin were referred to as doxorubicin resistant cells. […] The drug IC50 value was determined by MTT assay. […] Apoptosis was determined by Annexin V-FITC (AV-FLI) and propidium iodide (PI-FL2) staining using flow cytometry. […] For doxorubicin uptake assays, cells were incubated with or without doxorubicin for 24 hours, and doxorubicin content (FL2) was analyzed by flow cytometry. […]

[2] = test system: cisplatin resistant cells; experiment: MTT assay, drug IC50, cisplatin resistant cells
Protocol: as §1

[3] = test system: GEP overexpression transfectants; experiment: Apoptosis assay, Annexin V/PI flow cytometry; settings: doxorubicin 0.5 μg/ml, 24 hours, control or with ABCB5 suppression by siRNA
Protocol: (§2) Human liver cancer cell lines, Hep3B and HepG2, were purchased from American Type Culture Collection (Manassas, Va.). Culture method has been previously described, for example by Ho J C, et al. Hepatology 2008; 47: 1524-1532 and Cheung S T, et al. Clin Cancer Res 2004; 10: 7629-7636. Stable transfectants for GEP overexpression and suppression have also been described. For chemoresistant populations, the Hep3B cells were plated out and selected under various chemotherapeutic agents of various concentrations at 10-fold dilution for 30 days. The highest dose that still had viable cells over the extended selection period was used and the cells expanded for further selection. The one-step selected cells were then plated out again and selected under escalating doses of the respective drug in a 2-fold manner for another 30 days. The two-step selection process could select a population of cells more resistant to chemotherapeutic agents. The cells selected for resistance to doxorubicin were referred to as doxorubicin resistant cells. Similarly, the cells selected under cisplatin were referred to as cisplatin resistant cells. The drug IC50 value was determined by MTT assay. For apoptosis assays, cells were incubated with or without chemotherapeutic agents for 24 to 48 hours. Apoptosis was determined by Annexin V-FITC (AV-FLI) and propidium iodide (PI-FL2) staining using flow cytometry. The total apoptotic population included the early apoptotic cells (high MFI of AV but low PI) plus the late apoptotic cells (high MFI of both AV and PI) of the scatter plot. […] For doxorubicin uptake assays, cells were incubated with or without doxorubicin for 24 hours, and doxorubicin content (FL2) was analyzed by flow cytometry. Pilot studies had examined treatment time-points 0, 1, 3, 6 and 24 hours, and the latter three time-points had similar data profiles. […] There was a time-dependent effect, and thus the data charts presented the data of the 24-hour treatment in comparison with the baseline data. […]

[4] = test system: doxorubicin resistant cells; experiment: Apoptosis assay, Annexin V/PI flow cytometry; settings: doxorubicin 0.5 μg/ml, 24 hours, control or with ABCB5 suppression by siRNA
Protocol: as §2

Hep3B cells [5] = experiment: Apoptosis assay, Annexin V/PI flow cytometry; settings: doxorubicin 0.5 μg/ml, 24 hours, control or with ABCB5 suppression by siRNA
Protocol: as §2

[6] = test system: GEP overexpression transfectants; experiment: Doxorubicin uptake assay by flow cytometry; settings: doxorubicin 0.5 μg/ml, 24 hours, control or with ABCB5 suppression by siRNA
Protocol: as §2

[7] = test system: doxorubicin resistant cells; experiment: Doxorubicin uptake assay by flow cytometry; settings: doxorubicin 0.5 μg/ml, 24 hours, control or with ABCB5 suppression by siRNA
Protocol: as §2

Hep3B cells [8] = experiment: Doxorubicin uptake assay by flow cytometry; settings: doxorubicin 0.5 μg/ml, 24 hours, control or with ABCB5 suppression by siRNA
Protocol: as §2

[9] = test system: doxorubicin resistant cells; experiment: MTT assay, drug IC50, doxorubicin resistant cells
Protocol: as §1

Row | Compound | IC50 (Hep3B cells [1]) [µg/mL] | increase in resistance compared to parental cells ([2]; cisplatin resistant cells vs parental cells) | IC50 ([2]; cisplatin resistant cells, MTT assay) [µg/mL] | IC50 (Hep3B cells [1]; Homo sapiens, Hep3B, read-out: IC50) [µg/mL] | net increase in apoptotic populations [3] [%] | net increase in apoptotic populations [4] [%] | net increase in apoptotic populations (Hep3B cells [5]) [%] | population with doxorubicin uptake [6] [%] | population with doxorubicin uptake [7] [%] | population with doxorubicin uptake (Hep3B cells [8]) [%] | IC50 ([9]; Homo sapiens, doxorubicin resistant cells, MTT assay) [µg/mL] | increase in resistance compared to parental cells ([9]; doxorubicin resistant cells vs parental cells)
1 | N.N.[Cl][Pt][Cl] [cisplatin] | 0.84 | more than 10 folds | 8.53 | – | – | – | – | – | – | – | – | –
2 | COc1cccc2c1C(=O)c1c(O)c3c(c(O)c1C2=O)C[C@@](O)(C(=O)CO)C[C@@H]3O[C@H]1C[C@H](N)[C@H](O)[C@H](C)O1 [doxorubicin] | – | – | – | 0.11 (≈ 0.202 µM) | 11.3 | 7.7 | 12.5 | 55.4 | 31.1 | 76.4 | 1.78 (≈ 3.27 µM) | more than 16 folds
